Assay results as given in patent US7897150B1, “Canine lymphoma cell line and uses thereof” (The Ohio State University, priority 2007, dated 2011).
Structures can show the parent of a compound that is named as a salt.

System: OSW cell line
Test: In vitro chemosensitivity (WST-1 cytotoxicity and proliferation assay)
Type: cell-based
Conditions: Canis lupus familiaris; OSW canine T-cell lymphoma cell line, 72 h treatment, WST-1 assay; read-out: inhibitory concentration 50% (IC50)
Method: 1-2×10^4 cells were seeded in 96-well plates in quadruplicates to a final volume of 200 μL/well. Cells were treated with doxorubicin hydrochloride (Ben Venue Laboratories-Novation, Bedford, Ohio, USA) or vincristine sulfate (Mayne Pharma Pty Ltd., Mulgrave VIC, Australia) at varying concentrations of drug or vehicle control for 72 h. Cell proliferation and viability was determined using the WST-1 assay, which quantifies the reduction of the tetrazolium salt WST-1 by mitochondria in viable cells. Cell number was determined from absorbance values of known numbers of cells. At various time intervals, 20 μl of WST-1 reagent (Roche, Indianapolis, Ind., USA) was added to each well and incubated for 2 to 4 h at 37° C. The absorbance of the reaction product, after background subtraction, was measured at 450 nm on a Spectra Max M2 plate reader (Molecular Devices, Sunnyvale, Calif., USA). Each experiment was repeated at least three times.
The in vitro chemosensitivity of the OSW cell line to doxorubicin and vincristine was determined.

Row | SMILES | IC50
1 | CC[C@]1(O)C[C@H]2CN(CCc3c([nH]c4ccccc34)[C@@](C(=O)OC)(c3cc4c(cc3OC)N(C=O)[C@H]3[C@@](O)(C(=O)OC)[C@H](OC(C)=O)[C@]5(CC)C=CCN6CC[C@]43[C@@H]65)C2)C1 [vincristine, vincristine sulfate] | 400 nM
2 | COc1cccc2c1C(=O)c1c(O)c3c(c(O)c1C2=O)C[C@@](O)(C(=O)CO)C[C@@H]3O[C@H]1C[C@H](N)[C@H](O)[C@H](C)O1 [Doxorubicin, doxorubicin hydrochloride] | 500 nM
